In article PMC11187126, “Structure and dynamics of the pyroglutamylated RF-amide peptide QRFP receptor GPR103” (Nature Communications, 2024):
Read-outs that look alike come from different tables or passages of the source. No end group written: not given here.

Biological target: T1, GPR103 V129^3.36A (Homo sapiens, UniProt Q96P65, V129A)
T1 construct: we used human full-length QRFPR-encoding plasmids; expressed in transfected cells; host or cells: HEK293 cells, pCAGGS vector
T1 sequence (Q96P65 1-431 V129A): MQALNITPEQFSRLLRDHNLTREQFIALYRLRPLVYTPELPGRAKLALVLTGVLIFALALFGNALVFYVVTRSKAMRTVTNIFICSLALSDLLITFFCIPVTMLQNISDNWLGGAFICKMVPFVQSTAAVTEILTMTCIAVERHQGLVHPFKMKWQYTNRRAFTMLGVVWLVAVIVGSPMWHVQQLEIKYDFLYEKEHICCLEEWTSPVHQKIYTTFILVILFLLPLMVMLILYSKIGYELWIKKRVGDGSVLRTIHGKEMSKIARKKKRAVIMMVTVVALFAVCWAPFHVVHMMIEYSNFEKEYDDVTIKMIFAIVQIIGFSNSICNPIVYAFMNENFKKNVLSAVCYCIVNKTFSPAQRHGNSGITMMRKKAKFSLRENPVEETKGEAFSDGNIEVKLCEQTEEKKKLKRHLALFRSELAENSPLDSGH
Test: TGFα shedding assay; Exp. level WT (1:20)
Format: cell-based
Protocol: For the TGFα shedding assay and the flow cytometry analysis, we used human full-length QRFPR-encoding plasmids. Specifically, GPR103 was N-terminally modified with an HA signal sequence followed by a FLAG epitope and then a flexible linker ([…]; the FLAG epitope is underlined) and inserted into the pCAGGS vector. Plasmid encoding GPR103 mutants were generated using Quickchange Site-Directed Mutagensis kit (Agilent).
The TGFα shedding assay was performed as described previously with minor modifications. Plasmid transfection was performed in a 6-well plate with a mixture of 500 ng (per well in a 6-well plate) AP-TGFα-encoding plasmid and 200 ng GPR103-encoding plasmid. After 1-day culture, the transfected cells were harvested by trypsinization, pelleted by centrifugation at 190 × g for 5 min, and washed once with 5 mM HEPES (pH 7.4)-containing Hank’s Balanced Salt Solution (HBSS). After centrifugation, the cells were resuspended in 8 mL of the HEPES-containing HBSS. The cell suspension was seeded in a 96-well culture plate (cell plate) at a volume of 90 μL (per well hereafter) and incubated in a 37 °C incubator with 5% CO2 for 30 min. […] After spinning the cell plates at 190 × g for 2 min, 80 μL of conditioned media was transferred to an empty 96-well plate (conditioned media (CM) plate). Then, 80 μL of AP reaction solution (10 mM p-nitrophenylphosphate (p-NPP), 120 mM Tris-HCl (pH 9.5), 40 mM NaCl, and 10 mM MgCl2) was dispensed into the cell plates and the CM plates. Absorbance at 405 nm of the plates was measured using a microplate reader (SpectraMax 340 PC384, Molecular Devices) before and after 1-h incubation at room temperature. Ligand-induced AP-TGFα release was calculated by subtracting spontaneous AP-TGFα release signal from ligand-induced AP-TGFα release signal. The AP-TGFα release signals were fitted to a four-parameter sigmoidal concentration–response curve, using the Prism 10 software (GraphPad Prism). For each replicate experiment, the pEC50 parameter (negative logarithmic values of EC50 values) of the individual GPR103 mutants were normalized to that of the wild-type GPR103 performed in parallel, and resulting ∆pEC50 values were used to denote ligand response activity of the mutants. […]
Exp. le vel: WT (1:5 0)Exp. le vel: WT (1:5 0)Exp. le vel: WT (1:5 0)Exp. le vel: WT (1:2 0)Exp. le vel: WT (1:2 0)Exp. le vel: WT (1:1 0) […]
L1 4N - t e r mA F2 5N - t e r mA I 2 6N - t e r mA Y 2 9N - t e r mA C 9 82 .5 7A T10 22 .6 1A Exp . l eve l: WT (1 :5)Exp . l evel : >WT (1 :1)Exp. le vel: WT (1:2 0)Exp. le vel: WT (1:2 0)Exp. le vel: WT (1:5 0)Exp . l eve l: WT (1 :1) […]
Exp. le vel: WT (1:1 0)Exp. le vel: WT (1:2 0) C 1 1 83 .2 5AExp. le vel: WT (1:5 0)Exp. le vel: WT (1:5 0)Exp. le vel: WT (1:2 0)Exp . l eve l: WT (1 :5) […]
Exp. le vel: WT (1:5 0)Exp. le vel: WT (1:1 0)Exp. le vel: WT (1:5 0) E203ECL2AExp . l evel : >WT (1 :1)Exp. le vel: WT (1:5 0)Exp. le vel: WT (1:5 0) […]
Exp . l eve l: WT (1 :1) F28Exp. le vel: WT (1:5 0) C 2 8 56 .4 7AExp. le vel: WT (1:2 0) WExp. le vel: WT (1:2 0) F28Exp. le vel: WT (1:5 0)Exp . l evel : >WT (1 :1) […]
Exp. le vel: WT (1:5 0)Exp. le vel: WT (1:5 0) C 3 2 77 .4 8AExp . l eve l: WT (1 :5)Exp . l evel : >WT (1 :1)Exp . l evel : >WT (1 :1) […]
Suppl eme nt ary Figure 1 | Mutational analysis of GPR103. […]
mutants. Data are presented as mean values ± SEM, normally n=3-5; dots), each performed in triplicate. b-d Cell-surface expression (b) and QRFP26-in-duced activation of GPR103 (c, d) were analyzed by the flow cytometry and the TGFα shedding assay, respectively. From the concentration–response curves (a), Emax (c) and ΔpEC50 (d) values relative to the wild type were calculated. Colors in the mutant bars indicate an expression level matching to that of titrated wild type. Statistical analyses were performed using the ordinary one-way ANOVA followed by Dunnett tests with the expression-matched […]

Substance TSGPLGNLAEELNGYSRKKGGFSFRF-NH2 [QRFP26] has an Emax (Exp. #1) of 92.74 % WT, an Emax (Exp. #2) of 87.58 % WT and an Emax (Exp. #3) of 97.49 % WT. For the same substance, the Emax (mean, read-out: Emax) was 92.6%, the EC50 (n = 3) was 135 nM and the Emax (n = 3, read-out: Emax) was 96.2 ± 2.3%.
